This is an account of results in US11179397B2, “Imidazopyrimidine derivatives” (Gilead Sciences, Inc., priority 2018, dated 2021).

Structures are written as SMILES.

One experiment concerns NCI-H358 cells. In words: NCI-H358 3D tumor spheroid growth inhibition. Type of experiment: cell-based. The note with it: Homo sapiens, NCI-H358, 168 h, 3D spheroids, 7 days, 3D CellTiter Glo; cellular IC50 designated EC50; read-out: H358 EC50. The text has this: SHP-2 Cell Based Assay: […] Materials NCI-H358 cell line was purchased from [NT] number ATCC CRL-5807) (Manassas, Va.). RPMI-1640 (Catalog number 10-040-CM) was from Corning Cellgro (Manassas, Va.), Fetal Bovine Serum (FBS) (Catalog number SH30071.03) was from HyClone (Logan, Utanh), and 100× Penicillin/Streptomycin/L-Glutamine stock (Catalog no. 30-009-CI) and 384-well ULA plates (Catalog number 3830) were from Corning (Fremont, Calif.). Method […] At the day of assay, the cells were trypsinized and seeded at 1000 cells/70 μl/well in 384-well ULA plates and incubated at 37° C. incubator with 5% CO2 to allow spheroids to form. […] The plates were incubated for additional 7 days. Then 35 μl of medium from each well was removed, and replaced with 35 μl of 3D CellTiter Glo reagent from Promega. The wells were mixed by pipetting up and down with Biomek FX for 15 times to induce cell lysis and the plates were incubated at room temperature for additional 10 min to stabilize luminescent signal. The luminescence was then read by Envision. The inhibitor dose response curves were generated using normalized cellular IC50 (designated as EC50 in all FIGURES to distinguish from biochemical IC50s) by in house dose response analyses tools. The wells with DMSO vehicle were used as negative controls (0% inhibition). The % inhibition of SHP-2 compounds was calculated as: 100-[(Compound well luminescence counts/DMSO luminescence counts)×100%].
`Cc1nc(N2CCC3(CCC[C@H]3N)CC2)n2ccnc2c1-c1cnc(N)c(Cl)c1Cl` [Example 27]: the EC50 was 180 nM.

The next experiment deals with SHP-2 full length protein (Homo sapiens (Human), UniProt Q06124). In words: SHP-2 biochemical DiFMUP pseudosubstrate-fluorogenic assay. As to conditions: 0.2 nM SHP-2, 1 μM IRS-1 activator peptide, 50 μM DiFMUP; read-out: SHP2 IC50. The method, then: SHP-2 Biochemical Assay Materials Recombinant SHP-2 full length protein was generated in house. SHP-2 protein tyrosine phosphatase (PTP) domain protein (Catalog number SPR0217-20 ug), NaCl (Catalog number S6546-1L), and KCl (Catalog number 60142-500 mL) were purchased from Sigma-Aldrich (St. Louis, Mo.). IRS-1_[…](dPEG8)[…] peptide […]) was custom made by AnaSpec (Fremont, Calif.). DiFMUP substrate (Catalog number D6567), EDTA (Catalog number E177-500 mL), DTT (Catalog number P2325), and 384-well black polystyrene non-binding surface (Catalog number 3820) were purchased from Fisher Scientific (Hanover Park, Ill.). HEPES (Catalog number 15630-080) was purchased from Life Technologies (Pleasanton, Calif.), and Tween-20 (Catalog number 95059-250) was purchased from VWR (Radnor, Pa.). Method Inhibition of SHP-2 activity by small molecule inhibitors was monitored by a biochemical DiFMUP pseudosubstrate-fluorogenic assay. […] The reaction mix was added to the 384-well non-binding plate which had been pre-spotted with 1:3 serial diluted compounds from 10,000-0.005 nM, and incubated at room temperature for 90 min. DiFMUP substrate at final concentration of 50 μM was then added to the wells and incubated for additional 30 min at room temperature. The final reaction volume was 20 μl/well. […] The inhibitor dose response curves were generated using normalized IC50 regression curve fitting by in house dose response analysis tools. The wells with DMSO vehicle were used as controls (100% signal). The percent (%) control of SHP-2 compound was calculated as: (Compound well fluorescence counts/DMSO fluorescence counts)×100%.
Chain of SHP-2 full length protein (Q06124 whole entry): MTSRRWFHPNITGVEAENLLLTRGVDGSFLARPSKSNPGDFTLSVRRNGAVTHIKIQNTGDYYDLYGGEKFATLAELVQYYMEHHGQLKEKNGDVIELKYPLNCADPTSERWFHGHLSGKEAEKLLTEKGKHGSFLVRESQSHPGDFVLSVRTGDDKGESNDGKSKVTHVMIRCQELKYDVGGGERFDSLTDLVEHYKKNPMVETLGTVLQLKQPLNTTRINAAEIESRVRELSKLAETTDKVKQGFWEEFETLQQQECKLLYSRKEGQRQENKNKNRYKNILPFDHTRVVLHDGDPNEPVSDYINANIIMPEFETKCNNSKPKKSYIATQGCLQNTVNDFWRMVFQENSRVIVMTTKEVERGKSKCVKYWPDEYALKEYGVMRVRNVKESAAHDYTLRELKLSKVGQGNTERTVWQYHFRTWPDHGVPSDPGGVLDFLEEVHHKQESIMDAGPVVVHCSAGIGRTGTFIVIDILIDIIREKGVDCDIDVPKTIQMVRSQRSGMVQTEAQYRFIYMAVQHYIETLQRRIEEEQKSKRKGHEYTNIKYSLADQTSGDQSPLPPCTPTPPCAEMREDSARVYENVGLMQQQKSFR
As to `Cc1nc(N2CCC3(CCC[C@H]3N)CC2)n2ccnc2c1-c1cccc2cc[nH]c12` [Example 3], the IC50 came out at 86 nM.
In the case of `Cc1nc(N2CCC3(CCC[C@H]3N)CC2)n2ccnc2c1-c1ccncc1` [Example 4, (R)-8-(7-methyl-8-(pyridin-4-yl)imidazo[1,2-c]pyrimidin-5-yl)-8-azaspiro[4.5]decan-1-amine], the IC50 was found to be 1800 nM.
Same read-out and setting: then `Cc1nc(N2CCC3(CCC[C@H]3N)CC2)n2ccnc2c1-c1ccccn1` [Example 6, (R)-8-(7-methyl-8-(pyridin-2-yl)imidazo[1,2-c]pyrimidin-5-yl)-8-azaspiro[4.5]decan-1-amine], with 5400 nM.
`Cc1nc(N2CCC3(CCC[C@H]3N)CC2)n2ccnc2c1-c1ccccc1Cl` [Example 8, (R)-8-(8-(2-chlorophenyl)-7-methylimidazo[1,2-c]pyrimidin-5-yl)-8-azaspiro[4.5]decan-1-amine]: the IC50 is 26 nM.
Regarding `Cc1cnn(C)c1-c1c(C)nc(N2CCC3(CCC[C@H]3N)CC2)n2ccnc12` [Example 14, (R)-8-(8-(1,4-dimethyl-1H-pyrazol-5-yl)-7-methylimidazo[1,2-c]pyrimidin-5-yl)-8-azaspiro[4.5]decan-1-amine], the concentration for half-maximal inhibition (IC50) was > 10000 nM.
As to `Cc1nc(N2CCC3(CCC[C@H]3N)CC2)n2ccnc2c1-c1cc(N)ncc1Cl` [Example 16, (R)-8-(8-(2-amino-5-chloropyridin-4-yl)-7-methylimidazo[1,2-c]pyrimidin-5-yl)-8-azaspiro[4.5]decan-1-amine], the concentration for half-maximal inhibition (IC50) was 570 nM.
For the molecule `Cc1nc(N2CCC3(CCC[C@H]3N)CC2)n2ccnc2c1Sc1ccc(N)nc1C(F)(F)F` [Example 17, (R)-8-(8-((6-amino-2-(trifluoromethyl)pyridin-3-yl)thio)-7-methylimidazo[1,2-c]pyrimidin-5-yl)-8-azaspiro[4.5]decan-1-amine], the half-maximal inhibitory concentration (IC50) came out at 9.9 nM.
On the same count and under the same terms, then `Cc1nc(N2CCC3(CCC[C@H]3N)CC2)n2ccnc2c1-c1cccnc1C(F)(F)F` [Example 19, (R)-8-(7-methyl-8-(2-(trifluoromethyl)pyridin-3-yl)imidazo[1,2-c]pyrimidin-5-yl)-8-azaspiro[4.5]decan-1-amine], with > 10000 nM.
Take `Cc1noc(C)c1-c1c(C)nc(N2CCC3(CCC[C@H]3N)CC2)n2ccnc12` [Example 20]: the half-maximal inhibitory concentration (IC50) was > 10000 nM.
As for `Cc1nc(N2CCC3(CCC[C@H]3N)CC2)n2ccnc2c1-c1ccccc1C(F)(F)F` [Example 21, (R)-8-(7-methyl-8-(2-(trifluoromethyl)phenyl)imidazo[1,2-c]pyrimidin-5-yl)-8-azaspiro[4.5]decan-1-amine], the half-inhibitory concentration (IC50) is > 10000 nM.
Take `Cc1nc(N2CCC3(CCC[C@H]3N)CC2)n2ccnc2c1-c1cccnc1` [Example 22, (R)-8-(7-methyl-8-(pyridin-3-yl)imidazo[1,2-c]pyrimidin-5-yl)-8-azaspiro[4.5]decan-1-amine]: the 50% inhibitory concentration (IC50) worked out at 1700 nM.
`Cc1nc(N2CCC3(CCC[C@H]3N)CC2)n2ccnc2c1-c1ccnc(C(F)(F)F)c1` [Example 24, (R)-8-(7-methyl-8-(2-(trifluoromethyl)pyridin-4-yl)imidazo[1,2-c]pyrimidin-5-yl)-8-azaspiro[4.5]decan-1-amine]: the IC50 was > 10000 nM.
On to `Cc1nc(N2CCC3(CC2)C[C@H](O)C[C@H]3N)n2ccnc2c1-c1cccc(Cl)c1Cl` [Example 34, (2S,4R)-4-amino-8-(8-(2,3-dichlorophenyl)-7-methylimidazo[1,2-c]pyrimidin-5-yl)-8-azaspiro[4.5]decan-2-ol], for which the concentration for half-maximal inhibition (IC50) is 3.3 nM.
The same measure, in the same setting: then `C[C@@H]1OCC2(CCN(c3ncc(Sc4ccc(N)nc4C(F)(F)F)c4nccn34)CC2)[C@@H]1N` [Example 37, (3S,4S)-8-(8-((6-amino-2-(trifluoromethyl)pyridin-3-yl)thio)imidazo[1,2-c]pyrimidin-5-yl)-3-methyl-2-oxa-8-azaspiro[4.5]decan-4-amine], with 17 nM.
In the case of `CC1(CN)CCN(c2ncc(Sc3cccc(Cl)c3Cl)c3nccn23)CC1` [Example 43, (1-(8-((2,3-dichlorophenyl)thio)imidazo[1,2-c]pyrimidin-5-yl)-4-methylpiperidin-4-yl)methanamine], the IC50 turned out to be 23 nM.
For `CC1(N)CCN(c2ncc(Sc3ccccc3)c3nccn23)CC1` [Example 49, 4-methyl-1-(8-(phenylthio)imidazo[1,2-c]pyrimidin-5-yl)piperidin-4-amine], the concentration for half-maximal inhibition (IC50) was determined as 7200 nM.
On the same count and under the same terms, then `Nc1cc(C(F)(F)F)c(Sc2cnc(N3CCC4(CCC[C@H]4N)CC3)n3ccnc23)cn1` [Example 50, (R)-8-(8-((6-amino-4-(trifluoromethyl)pyridin-3-yl)thio)imidazo[1,2-c]pyrimidin-5-yl)-8-azaspiro[4.5]decan-1-amine], with 7500 nM; and `Nc1ccc(Sc2cnc(N3CCC4(CCC[C@H]4N)CC3)n3ccnc23)c(C(F)(F)F)n1` [Example 51, (R)-8-(8-((6-amino-2-(trifluoromethyl)pyridin-3-yl)thio)imidazo[1,2-c]pyrimidin-5-yl)-8-azaspiro[4.5]decan-1-amine], with 15 nM; and `Nc1cc(Sc2cnc(N3CCC4(CCC[C@H]4N)CC3)n3ccnc23)c(C(F)(F)F)cn1` [Example 53, (R)-8-(8-((2-amino-5-(trifluoromethyl)pyridin-4-yl)thio)imidazo[1,2-c]pyrimidin-5-yl)-8-azaspiro[4.5]decan-1-amine], with 12 nM.
Same read-out and setting: then `N[C@@H]1CCCC12CCN(c1ncc(Sc3cncnc3C(F)(F)F)c3nccn13)CC2` [Example 54, (R)-8-(8-((4-(trifluoromethyl)pyrimidin-5-yl)thio)imidazo[1,2-c]pyrimidin-5-yl)-8-azaspiro[4.5]decan-1-amine], with 4800 nM; and `NC1CCCCN(c2ncc(Sc3cccc(Cl)c3Cl)c3nccn23)C1` (stereo not shown) [Example 59, 1-(8-((2,3-dichlorophenyl)thio)imidazo[1,2-c]pyrimidin-5-yl)azepan-3-amine], with > 10000 nM; and `Cc1nc(N2CCC3(CCC[C@H]3N)CC2)n2ncnc2c1-c1cccc(Cl)c1Cl` [Example 60, (R)-8-(8-(2,3-dichlorophenyl)-7-methyl-[1,2,4]triazolo[1,5-c]pyrimidin-5-yl)-8-azaspiro[4.5]decan-1-amine], with 97 nM.
As to `Cc1nnc2c(Sc3cccc(Cl)c3Cl)cnc(N3CCC(C)(CN)CC3)n12` [Example 64, (1-(8-((2,3-dichlorophenyl)thio)-3-methyl-[1,2,4]triazolo[4,3-c]pyrimidin-5-yl)-4-methylpiperidin-4-yl)methanamine], the half-inhibitory concentration (IC50) was 800 nM.
In the case of `Cc1nc(N2CCC3(CCC[C@H]3N)CC2)n2cnnc2c1-c1cccc(Cl)c1Cl` [Example 65, (R)-8-(8-(2,3-dichlorophenyl)-7-methyl[1,2,4]triazolo[4,3-c]pyrimidin-5-yl)-8-azaspiro[4.5]decan-1-amine], the IC50 amounted to 20 nM.
Still for that read-out and setting: then `C[C@@H]1OCC2(CCN(c3ncc(Sc4nccc5ccccc45)c4nccn34)CC2)[C@@H]1N` [Example 118, (3S,4S)-8-(8-(isoquinolin-1-ylthio)imidazo[1,2-c]pyrimidin-5-yl)-3-methyl-2-oxa-8-azaspiro[4.5]decan-4-amine], with 550 nM; and `C[C@@H]1OCC2(CCN(c3ncc(Sc4ccnc5cc(C#N)ccc45)c4nccn34)CC2)[C@@H]1N` [Example 125, 4-((5-((3S,4S)-4-amino-3-methyl-2-oxa-8-azaspiro[4.5]decan-8-yl)imidazo[1,2-c]pyrimidin-8-yl)thio)quinoline-7-carbonitrile], with 51 nM.
`C[C@@H]1OCC2(CCN(c3ncc(Sc4ccnc5cc(Cl)ccc45)c4nccn34)CC2)[C@@H]1N` [Example 134, (3S,4S)-8-(8-((7-chloroquinolin-4-yl)thio)imidazo[1,2-c]pyrimidin-5-yl)-3-methyl-2-oxa-8-azaspiro[4.5]decan-4-amine]: the concentration for half-maximal inhibition (IC50) amounted to 9 nM.
